Measurements from US20070003585A1, “Topical skin treating compositions” (STIEFEL LABORATORIES, INC., priority 2005, published 2007).
Where two headings read alike, the source gives them in different places.

How the values were obtained:
[1] = Example 7 composition, initial 5.22%
[2] = Example 11 composition, initial […]
[3] = Storage stability of composition containing 2.15% of benzoyl peroxide, […] of tazarotene, and […] of clindamycin (Example 8); assay type: physicochemical; settings: Example 8 composition, initial 2.15%, 6 months
[4] = Storage stability of composition containing 2.02% of benzoyl peroxide, […] of tazarotene, and […] of clindamycin (Example 9); assay type: physicochemical; settings: Example 9 composition, initial 2.02%
[5] = Storage stability of composition containing 5.18% of benzoyl peroxide and 0.099% of tazarotene (Example 18); assay type: physicochemical; settings: Example 18 composition, initial 5.18%
Source text: (§1) The results are as follows:

[6] = Example 12 composition, initial […]
[7] = Example 6 composition, initial 5.54%
[8] = Example 10 composition, initial 1.54%
[9] = Storage stability of composition containing 2.02% of benzoyl peroxide and 0.099% of tazarotene (Example 17); assay type: physicochemical; settings: Example 17 composition, initial 2.02%
Source text: as §1

[10] = Example 13 composition, initial […]

SMILES: O=C(OOC(=O)c1ccccc1)c1ccccc1 [Benzoyl Peroxide]
- Benzoyl Peroxide (BPO) (as % w/w) ([1]; 2 weeks, 6° C.): 5.22 % w/w
- Benzoyl Peroxide (BPO) (as % w/w) ([1]; 2 weeks, 25° C.): 5.24 % w/w
- Benzoyl Peroxide (BPO) (as % w/w) ([1]; 2 weeks, 30° C.): 5.23 % w/w
- Benzoyl Peroxide (BPO) (as % w/w) ([1]; 2 weeks, 40° C.): 5.12 % w/w
- Benzoyl Peroxide (BPO) (as % w/w) ([1]; 6 months, 6° C.): 5.16 % w/w
- Benzoyl Peroxide (BPO) (as % w/w) ([1]; 6 months, 25° C.): 4.80 % w/w
- Benzoyl Peroxide (BPO) (as % w/w) ([1]; 6 months, 30° C.): 4.91 % w/w
- Benzoyl Peroxide (BPO) (as % w/w) ([1]; 6 months, 40° C.): 4.59 % w/w
- Benzoyl Peroxide (BPO) (as % w/w) ([2]; 2 weeks, 6° C.): 0.99 % w/w
- Benzoyl Peroxide (BPO) (as % w/w) ([2]; 2 weeks, 25° C.): 0.95 % w/w
- Benzoyl Peroxide (BPO) (as % w/w) ([2]; 2 weeks, 40° C.): 0.94 % w/w
- Benzoyl Peroxide (BPO) (as % w/w) ([2]; 6 months, 6° C.): 0.99 % w/w
- Benzoyl Peroxide (BPO) (as % w/w) ([2]; 6 months, 25° C.): 0.91 % w/w
- Benzoyl Peroxide (BPO) (as % w/w) ([2]; 6 months, 40° C.): 0.35 % w/w
- Benzoyl Peroxide (BPO) (as % w/w) ([2]; 30 days, 6° C.): 0.98 % w/w
- Benzoyl Peroxide (BPO) (as % w/w) ([2]; 30 days, 25° C.): 0.95 % w/w
- Benzoyl Peroxide (BPO) (as % w/w) ([2]; 30 days, 40° C.): 0.90 % w/w
- Benzoyl Peroxide (BPO) (as % w/w) ([2]; 90 days, 6° C.): 0.99 % w/w
- Benzoyl Peroxide (BPO) (as % w/w) ([2]; 90 days, 25° C.): 0.93 % w/w
- Benzoyl Peroxide (BPO) (as % w/w) ([2]; 90 days, 40° C.): 0.69 % w/w
- Benzoyl Peroxide (BPO) (as % w/w) ([3]; 6° C.): 2.13 % w/w
- Benzoyl Peroxide (BPO) (as % w/w) ([3]; 25° C.): 2.00 % w/w
- Benzoyl Peroxide (BPO) (as % w/w) ([3]; 30° C.): 2.05 % w/w
- Benzoyl Peroxide (BPO) (as % w/w) ([3]; 40° C.): 1.69 % w/w
- Benzoyl Peroxide (BPO) (as % w/w) ([4]; 6 months, 6° C.): 2.10 % w/w
- Benzoyl Peroxide (BPO) (as % w/w) ([4]; 6 months, 25° C.): 2.00 % w/w
- Benzoyl Peroxide (BPO) (as % w/w) ([4]; 6 months, 30° C.): 1.94 % w/w
- Benzoyl Peroxide (BPO) (as % w/w) ([4]; 6 months, 40° C.): 1.45 % w/w
- Benzoyl Peroxide (BPO) (as % w/w) ([4]; 90 days, 6° C.): 2.02 % w/w
- Benzoyl Peroxide (BPO) (as % w/w) ([4]; 90 days, 25° C.): 1.97 % w/w
- Benzoyl Peroxide (BPO) (as % w/w) ([4]; 90 days, 30° C.): 1.97 % w/w
- Benzoyl Peroxide (BPO) (as % w/w) ([4]; 90 days, 40° C.): 1.73 % w/w
- Benzoyl peroxide (as % w/w) ([5]; 6 months, 6° C.): 5.2 % w/w
- Benzoyl peroxide (as % w/w) ([5]; 6 months, 25° C.): 5.14 % w/w
- Benzoyl peroxide (as % w/w) ([5]; 6 months, 30° C.): 5.02 % w/w
- Benzoyl peroxide (as % w/w) ([5]; 6 months, 40° C.): 4.81 % w/w
- Benzoyl peroxide (as % w/w) ([5]; 90 days, 6° C.): 5.25 % w/w
- Benzoyl peroxide (as % w/w) ([5]; 90 days, 25° C.): 5.23 % w/w
- Benzoyl peroxide (as % w/w) ([5]; 90 days, 30° C.): 5.30 % w/w
- Benzoyl peroxide (as % w/w) ([5]; 90 days, 40° C.): 5.16 % w/w
- Benzoyl Peroxide (BPO) (as % w/w) ([6]; 2 weeks, 6° C.): 0.99 % w/w
- Benzoyl Peroxide (BPO) (as % w/w) ([6]; 2 weeks, 25° C.): 0.97 % w/w
- Benzoyl Peroxide (BPO) (as % w/w) ([6]; 2 weeks, 30° C.): 0.97 % w/w
- Benzoyl Peroxide (BPO) (as % w/w) ([6]; 2 weeks, 40° C.): 0.94 % w/w
- Benzoyl Peroxide (BPO) (as % w/w) ([6]; 6 months, 6° C.): 1.01 % w/w
- Benzoyl Peroxide (BPO) (as % w/w) ([6]; 6 months, 25° C.): 0.95 % w/w
- Benzoyl Peroxide (BPO) (as % w/w) ([6]; 6 months, 30° C.): 0.92 % w/w
- Benzoyl Peroxide (BPO) (as % w/w) ([6]; 6 months, 40° C.): 0.40 % w/w
- Benzoyl Peroxide (BPO) (as % w/w) ([6]; 90 days, 6° C.): 1.00 % w/w
- Benzoyl Peroxide (BPO) (as % w/w) ([6]; 90 days, 25° C.): 0.94 % w/w
- Benzoyl Peroxide (BPO) (as % w/w) ([6]; 90 days, 30° C.): 0.93 % w/w
- Benzoyl Peroxide (BPO) (as % w/w) ([6]; 90 days, 40° C.): 0.73 % w/w
- Benzoyl Peroxide (BPO) (as % w/w) ([7]; 2 weeks, 25° C.): 5.43 % w/w
- Benzoyl Peroxide (BPO) (as % w/w) ([7]; 2 weeks, 30° C.): 5.35 % w/w
- Benzoyl Peroxide (BPO) (as % w/w) ([7]; 2 weeks, 40° C.): 5.34 % w/w
- Benzoyl Peroxide (BPO) (as % w/w) ([7]; 90 days, 6° C.): 5.48 % w/w
- Benzoyl Peroxide (BPO) (as % w/w) ([7]; 90 days, 25° C.): 5.34 % w/w
- Benzoyl Peroxide (BPO) (as % w/w) ([7]; 90 days, 30° C.): 5.33 % w/w
- Benzoyl Peroxide (BPO) (as % w/w) ([7]; 90 days, 40° C.): 5.19 % w/w
- Benzoyl Peroxide (BPO) (as % w/w) ([8]; 6 months, 6° C.): 1.50 % w/w
- Benzoyl Peroxide (BPO) (as % w/w) ([8]; 6 months, 25° C.): 1.40 % w/w
- Benzoyl Peroxide (BPO) (as % w/w) ([8]; 6 months, 30° C.): 1.40 % w/w
- Benzoyl Peroxide (BPO) (as % w/w) ([8]; 6 months, 40° C.): 1.03 % w/w
- Benzoyl Peroxide (BPO) (as % w/w) ([8]; 90 days, 6° C.): 1.50 % w/w
- Benzoyl Peroxide (BPO) (as % w/w) ([8]; 90 days, 25° C.): 1.44 % w/w
- Benzoyl Peroxide (BPO) (as % w/w) ([8]; 90 days, 30° C.): 1.42 % w/w
- Benzoyl Peroxide (BPO) (as % w/w) ([8]; 90 days, 40° C.): 1.28 % w/w
- Benzoyl peroxide (as % w/w) ([9]; 6 months, 6° C.): 2.07 % w/w
- Benzoyl peroxide (as % w/w) ([9]; 6 months, 25° C.): 2.03 % w/w
- Benzoyl peroxide (as % w/w) ([9]; 6 months, 30° C.): 2.05 % w/w
- Benzoyl peroxide (as % w/w) ([9]; 6 months, 40° C.): 1.94 % w/w
- Benzoyl peroxide (as % w/w) ([9]; 90 days, 6° C.): 2.09 % w/w
- Benzoyl peroxide (as % w/w) ([9]; 90 days, 25° C.): 2.06 % w/w
- Benzoyl peroxide (as % w/w) ([9]; 90 days, 30° C.): 2.07 % w/w
- Benzoyl peroxide (as % w/w) ([9]; 90 days, 40° C.): 2.01 % w/w
- Benzoyl Peroxide (BPO) (as % w/w) ([10]; 2 weeks, 6° C.): 0.99 % w/w
- Benzoyl Peroxide (BPO) (as % w/w) ([10]; 2 weeks, 25° C.): 0.98 % w/w
- Benzoyl Peroxide (BPO) (as % w/w) ([10]; 2 weeks, 30° C.): 0.98 % w/w
- Benzoyl Peroxide (BPO) (as % w/w) ([10]; 2 weeks, 40° C.): 0.96 % w/w
- Benzoyl Peroxide (BPO) (as % w/w) ([10]; 6 months, 6° C.): 1.02 % w/w
- Benzoyl Peroxide (BPO) (as % w/w) ([10]; 6 months, 25° C.): 0.96 % w/w
- Benzoyl Peroxide (BPO) (as % w/w) ([10]; 6 months, 30° C.): 0.91 % w/w
- Benzoyl Peroxide (BPO) (as % w/w) ([10]; 6 months, 40° C.): 0.40 % w/w
- Benzoyl Peroxide (BPO) (as % w/w) ([10]; 90 days, 6° C.): 1.02 % w/w
- Benzoyl Peroxide (BPO) (as % w/w) ([10]; 90 days, 25° C.): 0.99 % w/w
- Benzoyl Peroxide (BPO) (as % w/w) ([10]; 90 days, 30° C.): 0.95 % w/w
- Benzoyl Peroxide (BPO) (as % w/w) ([10]; 90 days, 40° C.): 0.73 % w/w
